Source: ChEMBL document CHEMBL3885881, “DrugMatrix”

Species: Rattus norvegicus
Assay: DrugMatrix - Regimen: Daily Repeat
Type: toxicity, organism-based, Sprague-Dawley
Set-up: regimen Daily Repeat, gender Male, age 6-8 weeks
Settings: in vivo, po, […], route oral GAVAGE, dose 4.6 mg/Kg, dose level High, vehicle .5 % CMC; for BASOPHIL / EOSINOPHIL / ERYTHROCYTE COUNT / HEMATOCRIT / HEMOGLOBIN / LEUKOCYTE COUNT / LYMPHOCYTE / MEAN CORPUSCULAR HEMOGLOBIN / MEAN CORPUSCULAR HEMOGLOBIN CONCENTRATION / MEAN CORPUSCULAR VOLUME / MONOCYTE / NEUTROPHIL / PLATELET COUNT: tissue Blood; for ALANINE AMINOTRANSFERASE / ALBUMIN / ALKALINE PHOSPHATASE / ASPARTATE AMINOTRANSFERASE / BLOOD UREA NITROGEN / CARBON DIOXIDE / CHLORIDE / CHOLESTEROL / CREATINE PHOSPHOKINASE / CREATININE / GLUCOSE / LACTATE DEHYDROGENASE / LIPASE / PHOSPHORUS / POTASSIUM / SODIUM / TOTAL BILIRUBIN / TOTAL PROTEIN / URIC ACID: tissue Plasma

SMILES: COc1ccc(C(=O)Nc2c(Cl)c[n+]([O-])cc2Cl)c2ccc(C(F)(F)F)nc12 [SCH-351591]
- BASOPHIL (96 h, time 4 day): 0.27%
- EOSINOPHIL (96 h, time 4 day): 1.13%
- ERYTHROCYTE COUNT (96 h, time 4 day): 6.53 x10E6/uL
- HEMATOCRIT (96 h, time 4 day): 40.97%
- HEMOGLOBIN (96 h, time 4 day): 13.13 G/DL
- LEUKOCYTE COUNT (96 h, time 4 day): 18.12 x10E3/uL
- LYMPHOCYTE (96 h, time 4 day): 79.83%
- MEAN CORPUSCULAR HEMOGLOBIN (96 h, time 4 day): 20.13 pg
- MEAN CORPUSCULAR HEMOGLOBIN CONCENTRATION (96 h, time 4 day): 32.1 G/DL
- MEAN CORPUSCULAR VOLUME (96 h, time 4 day): 62.73 fL
- MONOCYTE (96 h, time 4 day): 2.33%
- NEUTROPHIL (96 h, time 4 day): 15.77%
- PLATELET COUNT (96 h, time 4 day): 1324.67 x10E3/uL
- ALANINE AMINOTRANSFERASE (96 h, time 4 day): 40.33 u/L
- ALBUMIN (96 h, time 4 day): 3.93 G/DL
- ALKALINE PHOSPHATASE (96 h, time 4 day): 341 u/L
- ASPARTATE AMINOTRANSFERASE (96 h, time 4 day): 77 u/L
- BLOOD UREA NITROGEN (96 h, time 4 day): 21.33 mg/dL
- CARBON DIOXIDE (96 h, time 4 day): 23.33 mmol/L
- CHLORIDE (96 h, time 4 day): 105 MEQ/L
- CHOLESTEROL (96 h, time 4 day): 88 mg/dL
- CREATINE PHOSPHOKINASE (96 h, time 4 day): 540.67 u/L
- CREATININE (96 h, time 4 day): 0.4 mg/dL
- GLUCOSE (96 h, time 4 day): 177 mg/dL
- LACTATE DEHYDROGENASE (96 h, time 4 day): 256 u/L
- LIPASE (96 h, time 4 day): 18 u/L
- PHOSPHORUS (96 h, time 4 day): 12.67 mg/dL
- POTASSIUM (96 h, time 4 day): 6.37 MEQ/L
- SODIUM (96 h, time 4 day): 146.33 MEQ/L
- TOTAL BILIRUBIN (96 h, time 4 day): 0.37 mg/dL
- TOTAL PROTEIN (96 h, time 4 day): 6.23 G/DL
- URIC ACID (96 h, time 4 day): 1.67 mg/dL
- BASOPHIL (time 6 day): 0.33%
- EOSINOPHIL (time 6 day): 0.37%
- ERYTHROCYTE COUNT (time 6 day): 7.26 x10E6/uL
- HEMATOCRIT (time 6 day): 48.6%
- HEMOGLOBIN (time 6 day): 14.77 G/DL
- LEUKOCYTE COUNT (time 6 day): 20.98 x10E3/uL
- LYMPHOCYTE (time 6 day): 75.93%
- MEAN CORPUSCULAR HEMOGLOBIN (time 6 day): 20.37 pg
- MEAN CORPUSCULAR HEMOGLOBIN CONCENTRATION (time 6 day): 30.33 G/DL
- MEAN CORPUSCULAR VOLUME (time 6 day): 67.07 fL
- MONOCYTE (time 6 day): 2.13%
- NEUTROPHIL (time 6 day): 19.93%
- PLATELET COUNT (time 6 day): 1217.67 x10E3/uL
- BASOPHIL (time 14 day): 0.38%
- EOSINOPHIL (time 14 day): 0.52%
- ERYTHROCYTE COUNT (time 14 day): 7.4 x10E6/uL
- HEMATOCRIT (time 14 day): 46.48%
- HEMOGLOBIN (time 14 day): 14.82 G/DL
- LEUKOCYTE COUNT (time 14 day): 23.35 x10E3/uL
- LYMPHOCYTE (time 14 day): 67.1%
- MEAN CORPUSCULAR HEMOGLOBIN (time 14 day): 20.06 pg
- MEAN CORPUSCULAR HEMOGLOBIN CONCENTRATION (time 14 day): 31.86 G/DL
- MEAN CORPUSCULAR VOLUME (time 14 day): 62.92 fL
- MONOCYTE (time 14 day): 1.96%
- NEUTROPHIL (time 14 day): 28.36%
- PLATELET COUNT (time 14 day): 1247.4 x10E3/uL
- ALANINE AMINOTRANSFERASE (time 6 day): 24.33 u/L
- ALBUMIN (time 6 day): 3.9 G/DL
- ALKALINE PHOSPHATASE (time 6 day): 313.33 u/L
- ASPARTATE AMINOTRANSFERASE (time 6 day): 61.33 u/L
- BLOOD UREA NITROGEN (time 6 day): 17.67 mg/dL
- CARBON DIOXIDE (time 6 day): 25.67 mmol/L
- CHLORIDE (time 6 day): 108.33 MEQ/L
- CHOLESTEROL (time 6 day): 80.67 mg/dL
- CREATINE PHOSPHOKINASE (time 6 day): 190.33 u/L
- CREATININE (time 6 day): 0.47 mg/dL
- GLUCOSE (time 6 day): 161 mg/dL
- LACTATE DEHYDROGENASE (time 6 day): 82 u/L
- LIPASE (time 6 day): 43.33 u/L
- PHOSPHORUS (time 6 day): 12.93 mg/dL
- POTASSIUM (time 6 day): 6.5 MEQ/L
- SODIUM (time 6 day): 149.33 MEQ/L
- TOTAL BILIRUBIN (time 6 day): 0.43 mg/dL
- TOTAL PROTEIN (time 6 day): 6.13 G/DL
- URIC ACID (time 6 day): 1.47 mg/dL
- ALANINE AMINOTRANSFERASE (time 14 day): 34.6 u/L
- ALBUMIN (time 14 day): 3.96 G/DL
- ALKALINE PHOSPHATASE (time 14 day): 330.4 u/L
- ASPARTATE AMINOTRANSFERASE (time 14 day): 65.6 u/L
- BLOOD UREA NITROGEN (time 14 day): 21 mg/dL
- CARBON DIOXIDE (time 14 day): 26.2 mmol/L
- CHLORIDE (time 14 day): 106.4 MEQ/L
- CHOLESTEROL (time 14 day): 70 mg/dL
- CREATINE PHOSPHOKINASE (time 14 day): 225.2 u/L
- CREATININE (time 14 day): 0.48 mg/dL
- GLUCOSE (time 14 day): 157.4 mg/dL
- LACTATE DEHYDROGENASE (time 14 day): 185.6 u/L
- LIPASE (time 14 day): 29.2 u/L
- PHOSPHORUS (time 14 day): 11.86 mg/dL
- POTASSIUM (time 14 day): 6.36 MEQ/L
- SODIUM (time 14 day): 149.8 MEQ/L
- TOTAL BILIRUBIN (time 14 day): 0.38 mg/dL
- TOTAL PROTEIN (time 14 day): 6.36 G/DL
- URIC ACID (time 14 day): 1.84 mg/dL
